Literature values in US20260232776A1, “COMBINATIONS OF DENDRITIC CELL-BASED VACCINES AND CHECKPOINT INHIBITORS” (Mayo Foundation for Medical Education and Research, priority 2023, published 2026).

System: p44/p42 MAPK or SAPK/JNK

Compound: C[S+]([O-])c1ccc(-c2nc(-c3ccncc3)c(-c3ccc(F)cc3)[nH]2)cc1 (stereo not shown) [SBA203580, adezmapimod]
- activity against other MAPKs such as p44/p42 MAPK or SAPK/JNK: little activity
